# Laboratory results reported in US11129782B2, “Derivatives of PPD useful for coloring hair and skin” (National University of Singapore, priority 2017, dated 2021).
# “And” between values parts separate entries of the source, which are not always exact repeats. Equal entries are not always repeated. Where two headings read alike, the source gives them in different places.
# Tests used:
# [1] = tested on: cysteine and lysine peptides
# Description: (§4) Direct reactivity of test chemical to lysine-based synthetic peptide was determined in reactions containing 100 mM ammonium acetate buffer (pH 10.2). The final concentration of lysine peptide was 20 μM in a final reaction volume of 0.3 ml. Direct reactivity of test chemicals to cysteine-based synthetic peptide was determined in 100 mM Sodium Phosphate buffer of pH 7.5.
# (§5) For the DPRA, incubation mixtures were prepared using each peptide to test compound ratios of both 1:10 for cysteine peptide and 1:50 for lysine peptide, according to Table 19. […] Sample reactions were initiated by adding 3 μl of a test chemical stock solution for cysteine and 15 μl stock solution for lysine peptide. These mixtures were then placed in a temperature-controlled shaking incubator at 25° C.
# (§6) At each time point (20 mins/24 hours), the incubation mixtures were quenched with 75 μL of 95% ACN/H2O, and mildly vortexed (600 rpm, 3 seconds). For Lysine DPRA experiment, 10 μl of aliquot was diluted with 2% ACN/H2O, vortexed and stored at −80° C. until analysis by LC-MS/MS. For cysteine DPRA, an additional step was performed. 10 μl of cysteine reaction mixture, at time points 20 min and 24 h were diluted in 180 μl of 2% ACN/H2O. To which, a 10 μl aliquot of a 16 mM dithiothreitol solution (prepared in water) was then added, and samples were heated in a 45° C. oven for 30 min, then allowed to cool to room temperature prior to analysis. The peptide depletion (PD) percentage was obtained using this equation.
# [2] = tested on: cysteine and lysine peptides; test: Direct Peptide Reactivity Assay, mean of cysteine and lysine depletion (FIG. 12); details: for Mean peptide depletion: mean of cysteine (1:10) and lysine (1:50), FIG. 12; for Sensitizing potential predicted from mean peptide depletion: cysteine 1:10 / lysine 1:50 model
# Description: as §4, §5, §6
# HaCaT cells = test: In vitro cell cytotoxicity (MTT) assay on HaCaT cells; type: cell-based, human; details: for IC50: 72 h incubation, MTT
# Text: HaCaT (human, adult, low calcium, high temperature, human adult skin keratinocytes) cells were obtained from the IMB (Institute of Medical Biology) Skin Cell Bank. Fetal bovine serum (FBS), Dulbecco's minimum essential medium (DMEM) and trypsin EDTA solution were purchased from GE healthcare life sciences, Utah. Penicillin/streptomycin, dimethyl sulfoxide (DMSO), and phosphate buffered saline (PBS) were from Fisher Scientific (Singapore). Para-phenylenediamine (PPD) was purchased from Sigma Aldrich (Singapore). PPD analogues such as Dimer, trimer, ethyl hexyl para-phenylenediamine (EHPPD), hexyl para-phenylenediamine (HPPD), Bandrowski base (BB) were synthesized in house.
# Cell viability was essentially determined using the MTT assay as described in the literature. The HaCaT cells were grown in DMEM with 10% FBS and 1% penicillin/streptomycin. The cells in T-75 cm^2 culture flasks were incubated with 5% CO2 at 37° C. in a humidified incubator. The HaCaT cells were grown to expected confluency and then they were harvested by trypsinizing the cell with 0.25% trypsin/EDTA and incubated at 37° C. for 5 min to obtain the complete cell detachment. After the incubation, cell pellets were resuspended, and washed twice with 1×PBS. The cell suspension in 1×PBS was counted and adjusted to 1×10^5/mL. A HaCaT keratinocyte suspension (100 μL in 1×PBS) with a cell concentration of 1×10^5 cells/mL) and a test solution (100 μL in milli-Q water) were combined in each well of two 96-well plates. Test solutions with a desired concentration were prepared by serial dilutions of the stock solutions with 1×PBS.
# For the cytotoxicity experiment, cells were seeded at a density of 5×10^3 in 200 ul of medium into each well of 96-well plates. Cells were seeded as three sets of four replicates for each concentration. After 24 h of incubation, the cells were washed with PBS and cultured for 72 h with 200 ul of 10% FBS containing DMEM medium, together with the different concentrations of the test compounds ranging from 500 μM to 1.9 μM for PPD and analogues 1-5 and standard in a serial dilution. Then the medium was removed and 100 μl of MTT [3-(4,5-dimethylthiazol-2yl)-2,5-diphenyl-2H-tetrazolium bromide](1 mg/ml) (Alfa Aesar, Singapore) in PBS was added. At the end of 4 h incubation, the plates were removed from the incubator and plates were shaken for 5 min. The absorbance at 570 nm was determined using Bio-Tek plate reader. The cell viability rates were calculated from absorbance readings and represented as percentages of control value (untreated cells).
# IL-8 = IL-8 ELISA on THP-1 cell supernatants; type: cell-based, human; details: preliminary ELISA, CV75
# Description: (§1) For cytokine profiling in THP-1, supernatants from wells were collected and then used for cytokine analysis by a Chemokine immunosorbent assay Bio-legend ELISA Max kit. The levels of available IL-8 protein from THP-1 cell supernatants was estimated using this kit which are regulated upon activation of THP-1 model. Surface receptor expression of human CD-86, CD-54, MHC-I and IL-T3 were analyzed by flow cytometry using standard BD FACS analyzer with PE and FITC fluorescent labeled antibodies from Biolegend and e Bioscience.
# (§2) In order to understand the effect of modified PPD hairdyes on THP-1 immune sensitization, a certain degree of Cytotoxicity at CV75% viable where 25% cell death is required before evaluation of supernatants in THP-1 models for expression of cytokine IL-8 and receptor expression of CD86, CD54, MHC-I and IL-T3 surface receptors upon treatment with standard PPD and modified hair dye compounds. Most allergens show a specific dose-dependent alteration of CD86 and/or CD54 expression or secretion of cytokine profiles. But depending on chemical, the alteration pattern may vary.
# CD54 = CD54 surface expression on THP-1 by flow cytometry; type: cell-based, human
# Description: as §1, §2
# ILT3 = ILT3 surface expression on THP-1 by flow cytometry; type: cell-based, human; details: in comparison to DCNB
# Description: as §1, §2
# [3] = Skin permeation in vertical Franz diffusion cells; type: in vitro ADME, porcine; details: 8 h; for recovery at 8 h, 1 % w/v: pig, read-out: % Parent compound Recovery (mean); for Penetration profile PPD vs derivatives (times less than PPD): ratio of PPD penetration to that of the compound
# Description: Porcine ears were generously provided by the NUS Department of Surgery. The ears were frozen at −80° C. until use (up to 3 months) and thawed at room temperature on the day preceding the experiment. Prior to the experiment, the skin was separated from the cartilage and dermatomed to a thickness of ˜1.0 mm using an Acculan™ 3Ti dermatome (Aesculap, Inc., B. Braun, USA).
# The PPD and derivatives were dissolved in deionized water at 1% w/v. The PPD and PPD derivatives 1-5 solutions were purged with argon gas to minimize oxidation of the donor solution.
# Skin penetration studies were carried out using vertical Franz diffusion cells (PermeGear, USA) immersed in a 37° C. water bath. The donor and receptor volumes were 900 µL and 5 mL, respectively; the mean surface area of penetration was 0.64 cm^2. Upon insertion of the skin pieces into the Franz cells, the skin was equilibrated for 45 min with PBS in the receptor compartment. After equilibration, the skin's trans-epidermal water loss (TEWL) was measured using an Aquaflux AF300 (Biox, UK) to assess the integrity of the skin's stratum corneum barrier. The donor solution, consisting of PPD or derivative 1-5 (n=3 Franz cells each), was then added to the donor compartment and the penetration experiments were conducted for 8 h. The receptor solutions were continuously stirred with magnetic stirrers. At fixed time points, aliquots of 200 μL were taken from the receptor solution of each cell and the receptor solution topped up with 200 μL of fresh PBS. At the end of the experiment, the donor and receptor solutions were removed and the cells dismantled. For the purpose of mass balance on the PPD, PPD derivatives 1-5 the skin pieces and swabs of their outer surfaces were collected and stored in acetonitrile for PPD or derivative 1-5 extraction. The donor solution as well as PBS used to thoroughly wash each part of the Franz cells were also collected.
# PPD, PPD derivatives 1-5 and metabolite concentrations in all permeation and mass balance samples were measured by LCMS. PPD steady state fluxes and permeability coefficients were calculated by fitting the solution to Fick's second law of diffusion at the steady state to the linear part of each experimental cumulative amount curve.
# The validated method LCMS was applied to quantify PPD, PPD derivative 1-5 and metabolites from skin permeation study samples. FIGS. 3 and 4 show LCMS spectra for the identification of PPD and PPD derivatives 1 and 2 and metabolites from skin permeation study experiment.
# CD86 = CD86 surface expression on THP-1 by flow cytometry; type: cell-based, human
# Description: as §1, §2
# [4] = tested on: lysine peptide (Ac-RFAAKAA-COOH); test: Direct Peptide Reactivity Assay, lysine peptide; details: for % of Lysine depletion, Avg / % of Lysine depletion, Rep 2 / % of Lysine depletion, Rep 3 / Reactivity Class: 1:50; for % of Lysine depletion, Rep 1: peptide 0.02 mM : test chemical 1 mM (1:50); for Reactivity Class: lysine
# Description: (§3) The mass spectrometric analysis was performed by use of a AB SCIEX QTRAP 5500 tandem mass spectrometry (MS/MS) system (AB SCIEX, Framingham, Mass., USA) operating in triple quadrupole positive mode (ESI+) equipped with an AB Sciex Turbo Ion Spray interface. Acquisition and analysis of data were performed with Analyst software ver. 1.6.2 (Applied Biosystems).
# [5] = tested on: cysteine peptide (Ac-RFAACAA-COOH); test: Direct Peptide Reactivity Assay, cysteine peptide; details: for % of Cysteine depletion, Avg / % of Cysteine depletion, Rep 2 / % of Cysteine depletion, Rep 3 / Reactivity Class: 1:10; for % of Cysteine depletion, Rep 1: peptide 0.02 mM : test chemical 0.2 mM (1:10); for Reactivity Class: cysteine
# Description: For cysteine DPRA, an additional step was performed.
# as §3
# [6] = Solubility observed when preparing dyes; type: physicochemical; details: water / organic solvents
ILT3 (inhibitory receptor) expression (ILT3),% Parent compound Penetrated (mean) ([3]; 1% W/V applied),% converted to metabolite (mean) ([3]; 1% W/V applied),Permeation less than PPD [3],"recovery at 8 h, 1 % w/v ([3]; 1% W/V applied)",Penetration profile PPD vs derivatives (times less than PPD) [3],SMILES,Sensitizing potential predicted from mean peptide depletion [1],Mean peptide depletion [2],IC50 (HaCaT cells),IL-8 expression (IL-8),Expression of CD54 (CD54),Expression of CD86 (CD86),"IC50 (HaCaT cells; Homo sapiens, HaCaT, 72 h)","% of Lysine depletion, Avg ([4]; 20 min)","% of Lysine depletion, Rep 2 ([4]; 20 min)","% of Lysine depletion, Rep 3 ([4]; 20 min)","% of Lysine depletion, Rep 1 ([4]; 20 min)","% of Lysine depletion, Avg ([4]; 24 h)","% of Lysine depletion, Rep 2 ([4]; 24 h)","% of Lysine depletion, Rep 3 ([4]; 24 h)",other results
–,–,–,–,–,–,"Cc1ccc(NCc2ccc(-c3ccc(Nc4ccc(N)cc4)cc3)cc2)cc1 [PPD derivative 9, 4-Amino-4′-[(4-tolylaminomethyl)phenyl]diphenylamine]",weak sensitizer,17.9%,6.8 µM,–,–,–,–,–,–,–,–,–,–,–,–
–,–,–,–,–,–,"Nc1ccc(Nc2ccc(Nc3ccc(Nc4ccc(N)cc4)cc3)cc2)cc1 [PPD derivative 8, 4,4′-Bis[(4-aminophenyl)amino]diphenylamine]",high sensitizing agents,–,6.92 µM,increased expression,–,–,–,–,–,–,–,–,–,–,–
increased,0.00015%,0.01%,about 2 order of magnitude,95.4%,1080,"CCCCCCOC(=O)c1cc(Nc2ccc(N)cc2)ccc1N [PPD derivative 6, hexyl 2-amino-5-((4-aminophenyl)amino)benzoate]",–,–,–,do not stimulate IL-8 expression,not stimulated,not stimulated,10.5 µM,–,–,–,–,–,–,–,–
increased,0.0001%,0.0108%,about 2 order of magnitude,96.7%,1620,"CCCCCCOC(=O)c1cc(N)ccc1N [PPD derivative 15, Hexyl-2,5-diaminobenzoate]",–,–,–,do not stimulate IL-8 expression,not stimulated,not stimulated,160 µM,–,–,–,–,–,–,–,Improvement of cell viability in comparison to PPD 4 (HaCaT cells): about 5 times
–,–,–,–,–,–,"NC1=CC(=Nc2ccc(N)cc2)C(N)=CC1=Nc1ccc(N)cc1 [Bandrowski Base, reference compound]",–,38.9%,6.09 µM,increased expression,–,–,–,6.7%,7.89%,2.54%,9.58%,5.6%,6.0%,5.5%,"% of Lysine depletion, Rep 1 ([4]; 24 h): 5.4%; Reactivity Class ([4]; 20 min): Low; Reactivity Class ([4]; 24 h): Low; Sensitizing potential predicted from mean peptide depletion [2]: moderate sensitizer; % of Cysteine depletion, Avg ([5]; 20 min): 44.2%; % of Cysteine depletion, Rep 2 ([5]; 20 min): 44.5%; % of Cysteine depletion, Rep 3 ([5]; 20 min): 45.5%; % of Cysteine depletion, Rep 1 ([5]; 20 min): 42.5%; % of Cysteine depletion, Avg ([5]; 24 h): 70.7%; % of Cysteine depletion, Rep 2 ([5]; 24 h): 69.9%; % of Cysteine depletion, Rep 3 ([5]; 24 h): 70.4%; % of Cysteine depletion, Rep 1 ([5]; 24 h): 71.8%; Reactivity Class ([5]; 20 min): High; Reactivity Class ([5]; 24 h): High; Solubility (in words) [6]: limited solubility in water"

SMILES,ILT3 (inhibitory receptor) expression (ILT3),% Parent compound Penetrated (mean) ([3]; 1% W/V applied),% converted to metabolite (mean) ([3]; 1% W/V applied),Permeation less than PPD [3],"recovery at 8 h, 1 % w/v ([3]; 1% W/V applied)",Penetration profile PPD vs derivatives (times less than PPD) [3],Sensitizing potential predicted from mean peptide depletion [1],Mean peptide depletion [2],IC50 (HaCaT cells),IL-8 expression (IL-8),Expression of CD54 (CD54),Expression of CD86 (CD86),"IC50 (HaCaT cells; Homo sapiens, HaCaT, 72 h)","% of Lysine depletion, Avg ([4]; 20 min)","% of Lysine depletion, Rep 2 ([4]; 20 min)","% of Lysine depletion, Rep 3 ([4]; 20 min)","% of Lysine depletion, Rep 1 ([4]; 20 min)","% of Lysine depletion, Avg ([4]; 24 h)","% of Lysine depletion, Rep 2 ([4]; 24 h)","% of Lysine depletion, Rep 3 ([4]; 24 h)",other results
"Nc1ccc(Nc2ccc(N)cc2)cc1 [PPD derivative 1, 4,4′-Diaminodiphenylamine]",–,0.00314%,0.0104%,–,–,–,–,–,49.3 µM,increased expression,–,–,–,7.79%,6.48%,9.01%,7.89%,23.8%,28%,22.3%,"% of Lysine depletion, Rep 1 ([4]; 24 h): 21%; Reactivity Class ([4]; 20 min): Low; Reactivity Class ([4]; 24 h): Moderate; % Parent compound Recovery (mean) ([3]; 1% W/V applied): 93.85%; Penetration profile PPD vs derivatives (times less than PPD) ([3]; listed as PPD 1): 51 and 51.6; Sensitizing potential predicted from mean peptide depletion [2]: high sensitizing agents; % of Cysteine depletion, Avg ([5]; 20 min): 41.5%; % of Cysteine depletion, Rep 2 ([5]; 20 min): 40.5%; % of Cysteine depletion, Rep 3 ([5]; 20 min): 41.5%; % of Cysteine depletion, Rep 1 ([5]; 20 min): 42.6%; % of Cysteine depletion, Avg ([5]; 24 h): 69.4%; % of Cysteine depletion, Rep 2 ([5]; 24 h): 69.6%; % of Cysteine depletion, Rep 3 ([5]; 24 h): 69.3%; % of Cysteine depletion, Rep 1 ([5]; 24 h): 69.5%; Reactivity Class ([5]; 20 min): Moderate; Reactivity Class ([5]; 24 h): High; Solubility (in words) [6]: showed solubility in a mixture of 10% methanol in water; Fold increase in IC50 compared to PPD (HaCaT cells): ~2 fold"
